Key:
DLD-1 = experiment: cells; format: cell-based; conditions: for Basal_Viability ATP DLD-1 IC50/EC50: assay number 23
SW480 = experiment: cells; format: cell-based; conditions: for Basal_Viability ATP SW480 IC50/EC50: assay number 24
[1] = system: endothelial tube formation in co-cultures of ECFCs and ADSCs treated with VEGF; experiment: cells; format: cell-based, human
hp70S6K1 (RPS6KB1) = target: T1, hp70S6K1 (RPS6KB1) (Homo sapiens, UniProt P23443); experiment: Cerep LANCE kinase assay hp70S6K1 (S1 assay 31); format: biochemical; conditions: for hp70S6K1 LANCE IC50/EC50: assay number 31
T1 construct: purchased Cerep (LANCE kinase assay platform, contract assay)
T1 sequence (P23443 whole entry): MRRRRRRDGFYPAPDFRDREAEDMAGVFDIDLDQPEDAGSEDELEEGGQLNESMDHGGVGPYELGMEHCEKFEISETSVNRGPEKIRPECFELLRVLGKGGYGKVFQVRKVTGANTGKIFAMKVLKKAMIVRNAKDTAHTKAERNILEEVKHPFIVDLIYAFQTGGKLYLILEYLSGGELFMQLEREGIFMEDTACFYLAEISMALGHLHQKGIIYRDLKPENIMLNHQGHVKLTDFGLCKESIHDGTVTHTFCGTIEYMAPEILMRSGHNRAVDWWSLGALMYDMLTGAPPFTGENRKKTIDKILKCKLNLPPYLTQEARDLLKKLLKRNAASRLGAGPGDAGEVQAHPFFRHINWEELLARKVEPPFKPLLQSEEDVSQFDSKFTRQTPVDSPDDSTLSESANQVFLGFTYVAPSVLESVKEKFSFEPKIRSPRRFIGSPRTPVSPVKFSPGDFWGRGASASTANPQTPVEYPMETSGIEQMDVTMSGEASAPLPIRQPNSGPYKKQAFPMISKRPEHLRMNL

RKO = experiment: cells; format: cell-based; conditions: for Basal_Viability ATP RKO IC50/EC50: assay number 29
HT-29 = experiment: cells; format: cell-based; conditions: for Basal_Viability ATP HT-29 IC50/EC50: assay number 28
hJAK2 = target: T2, hJAK2 (Homo sapiens, UniProt O60674); experiment: Cerep LANCE kinase assay hJAK2 (S1 assay 33); format: biochemical; conditions: for hJAK2 LANCE IC50/EC50: assay number 33
T2 construct: purchased Cerep (LANCE kinase assay platform, contract assay)
T2 sequence (O60674 whole entry): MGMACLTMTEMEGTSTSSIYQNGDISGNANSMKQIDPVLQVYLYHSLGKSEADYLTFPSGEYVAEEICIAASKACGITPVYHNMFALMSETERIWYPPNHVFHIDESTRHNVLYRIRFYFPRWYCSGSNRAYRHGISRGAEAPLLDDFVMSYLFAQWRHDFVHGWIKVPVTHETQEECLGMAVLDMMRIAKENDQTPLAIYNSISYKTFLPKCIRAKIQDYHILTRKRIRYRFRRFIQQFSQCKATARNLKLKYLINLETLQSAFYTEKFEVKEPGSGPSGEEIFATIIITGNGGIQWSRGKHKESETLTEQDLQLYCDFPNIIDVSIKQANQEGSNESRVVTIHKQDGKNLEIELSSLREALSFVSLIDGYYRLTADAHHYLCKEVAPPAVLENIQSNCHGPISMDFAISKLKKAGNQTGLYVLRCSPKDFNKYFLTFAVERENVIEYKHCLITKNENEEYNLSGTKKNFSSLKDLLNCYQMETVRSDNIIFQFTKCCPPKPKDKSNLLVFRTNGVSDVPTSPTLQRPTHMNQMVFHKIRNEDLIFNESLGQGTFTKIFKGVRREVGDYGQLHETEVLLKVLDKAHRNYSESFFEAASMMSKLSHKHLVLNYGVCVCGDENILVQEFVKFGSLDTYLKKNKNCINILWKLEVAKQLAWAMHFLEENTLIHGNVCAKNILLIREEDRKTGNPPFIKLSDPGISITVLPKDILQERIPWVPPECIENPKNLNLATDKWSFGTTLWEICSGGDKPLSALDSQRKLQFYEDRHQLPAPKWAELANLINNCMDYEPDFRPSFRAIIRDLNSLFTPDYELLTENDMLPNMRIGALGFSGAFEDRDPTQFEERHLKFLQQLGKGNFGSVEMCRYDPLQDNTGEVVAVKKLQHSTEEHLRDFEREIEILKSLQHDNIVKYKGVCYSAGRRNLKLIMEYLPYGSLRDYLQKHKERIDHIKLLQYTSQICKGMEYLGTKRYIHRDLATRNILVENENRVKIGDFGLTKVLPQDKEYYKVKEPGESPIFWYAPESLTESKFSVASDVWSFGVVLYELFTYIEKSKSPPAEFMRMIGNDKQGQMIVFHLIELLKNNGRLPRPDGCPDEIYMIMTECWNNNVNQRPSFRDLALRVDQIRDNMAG

[2] = system: nuclear β-catenin in C2C12 cells; experiment: cells; format: cell-based; conditions: concentration response; for WntCondMedia_bCatenin C2C12 IC50/EC50: assay number 5
HCT116 = experiment: cells; format: cell-based; conditions: basal; for Basal_Viability ATP HCT116 IC50/EC50: assay number 25
Colo320 = experiment: cells; format: cell-based; conditions: for Basal_Viability ATP Colo 320 IC50/EC50: assay number 27
hFLT3 = target: T3, hFLT3 (Homo sapiens, UniProt P36888); experiment: Cerep LANCE kinase assay hFLT3 (S1 assay 35); format: biochemical; conditions: for hFLT3 LANCE IC50/EC50: assay number 35
T3 construct: purchased Cerep (LANCE kinase assay platform, contract assay)
T3 sequence (P36888 27-993): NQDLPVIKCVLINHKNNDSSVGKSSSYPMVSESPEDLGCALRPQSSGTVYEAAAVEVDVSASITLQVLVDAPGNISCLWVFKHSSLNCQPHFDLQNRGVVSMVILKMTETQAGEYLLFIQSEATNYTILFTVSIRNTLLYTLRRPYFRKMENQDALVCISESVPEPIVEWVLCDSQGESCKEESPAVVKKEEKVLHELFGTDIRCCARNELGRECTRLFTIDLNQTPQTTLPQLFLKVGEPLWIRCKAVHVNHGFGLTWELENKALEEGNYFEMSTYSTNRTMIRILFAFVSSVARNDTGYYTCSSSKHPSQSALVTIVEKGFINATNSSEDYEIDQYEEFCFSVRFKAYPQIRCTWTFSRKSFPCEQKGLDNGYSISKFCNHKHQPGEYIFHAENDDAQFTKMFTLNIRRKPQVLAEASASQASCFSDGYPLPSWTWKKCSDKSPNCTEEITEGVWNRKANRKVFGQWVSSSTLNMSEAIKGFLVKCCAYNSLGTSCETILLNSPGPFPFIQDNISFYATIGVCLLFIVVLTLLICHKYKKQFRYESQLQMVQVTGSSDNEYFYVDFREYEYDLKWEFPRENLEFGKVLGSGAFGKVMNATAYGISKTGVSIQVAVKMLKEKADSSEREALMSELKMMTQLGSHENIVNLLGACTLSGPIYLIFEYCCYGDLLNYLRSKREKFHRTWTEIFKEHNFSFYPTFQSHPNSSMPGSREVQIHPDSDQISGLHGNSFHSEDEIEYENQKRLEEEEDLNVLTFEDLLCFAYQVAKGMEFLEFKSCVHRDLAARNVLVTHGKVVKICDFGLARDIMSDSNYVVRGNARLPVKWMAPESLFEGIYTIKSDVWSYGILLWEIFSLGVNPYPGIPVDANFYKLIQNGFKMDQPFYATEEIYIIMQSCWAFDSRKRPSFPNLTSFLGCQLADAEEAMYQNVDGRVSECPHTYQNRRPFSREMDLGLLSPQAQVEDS

HeLa cells = experiment: cells; format: cell-based; conditions: for Hela CellCycMod PI 2N IC50/EC50: assay number 14; for Hela CellCycMod PI S Phase IC50/EC50: assay number 15; for Hela CellCycMod PI 4N IC50/EC50: assay number 16; for Hela CellCycMod PI MI IC50/EC50: assay number 17; for Hela CellCycMod PI Cell Number IC50/EC50: assay number 18
[3] = system: HCT116 cells treated with a GSK3β inhibitor; experiment: cells; format: cell-based; conditions: for GSK3b inh pretreated_Viability ATP HCT116 IC50/EC50: assay number 26, GSK3b inhibitor pretreated; for IC50/EC50, GSK3b inh pretreated_Viability ATP HCT116 (assay number 26): GSK3b inh pretreated
hKDR = target: T4, hKDR (Homo sapiens, UniProt P35968); experiment: Cerep LANCE kinase assay hKDR (S1 assay 32); format: biochemical; conditions: for hKDR LANCE IC50/EC50: assay number 32
T4 construct: purchased Cerep (LANCE kinase assay platform, contract assay)
T4 sequence (P35968 20-1356): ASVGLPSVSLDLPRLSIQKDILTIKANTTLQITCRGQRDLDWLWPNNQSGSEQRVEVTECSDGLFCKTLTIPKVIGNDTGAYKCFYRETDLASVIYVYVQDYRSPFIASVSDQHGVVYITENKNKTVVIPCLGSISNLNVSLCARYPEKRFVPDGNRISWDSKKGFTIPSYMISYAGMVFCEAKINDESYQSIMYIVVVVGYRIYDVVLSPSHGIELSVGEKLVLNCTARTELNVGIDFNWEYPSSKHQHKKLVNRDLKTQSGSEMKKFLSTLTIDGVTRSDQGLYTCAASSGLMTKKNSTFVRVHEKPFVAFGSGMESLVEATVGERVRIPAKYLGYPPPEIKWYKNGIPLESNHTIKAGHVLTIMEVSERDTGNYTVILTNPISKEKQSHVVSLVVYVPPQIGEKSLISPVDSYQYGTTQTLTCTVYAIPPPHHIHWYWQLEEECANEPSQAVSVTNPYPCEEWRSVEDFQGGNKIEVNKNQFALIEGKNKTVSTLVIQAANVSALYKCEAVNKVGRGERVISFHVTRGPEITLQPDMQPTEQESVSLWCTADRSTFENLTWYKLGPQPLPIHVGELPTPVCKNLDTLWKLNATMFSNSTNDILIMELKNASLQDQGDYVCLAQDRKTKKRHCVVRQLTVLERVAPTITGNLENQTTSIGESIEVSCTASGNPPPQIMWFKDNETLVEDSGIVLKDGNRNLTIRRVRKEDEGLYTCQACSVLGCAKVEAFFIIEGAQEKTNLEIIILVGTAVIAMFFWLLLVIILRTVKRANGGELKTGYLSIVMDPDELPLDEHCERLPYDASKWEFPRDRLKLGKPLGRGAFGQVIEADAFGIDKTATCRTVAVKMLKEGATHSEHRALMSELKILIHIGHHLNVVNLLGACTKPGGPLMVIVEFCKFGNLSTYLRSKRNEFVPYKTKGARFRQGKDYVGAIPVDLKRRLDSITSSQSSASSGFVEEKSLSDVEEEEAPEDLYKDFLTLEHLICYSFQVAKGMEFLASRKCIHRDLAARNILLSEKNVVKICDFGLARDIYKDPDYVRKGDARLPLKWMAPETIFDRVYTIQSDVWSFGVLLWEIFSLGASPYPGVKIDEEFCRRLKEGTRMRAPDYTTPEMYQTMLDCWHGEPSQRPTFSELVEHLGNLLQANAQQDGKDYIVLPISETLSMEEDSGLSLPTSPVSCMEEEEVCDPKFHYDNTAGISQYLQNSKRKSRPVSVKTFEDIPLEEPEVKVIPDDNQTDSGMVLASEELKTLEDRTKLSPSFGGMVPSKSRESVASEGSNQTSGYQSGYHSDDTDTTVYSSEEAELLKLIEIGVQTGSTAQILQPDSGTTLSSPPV

[4] = system: alkaline phosphatase (ALP) activity in C2C12 cells; format: cell-based; conditions: concentration response; for WntCondMedia_Alk Phos C2C12 IC50/EC50: assay number 6
SNU-C1 = experiment: cells; format: cell-based; conditions: for Basal_Viability ATP SNU-C1 IC50/EC50: assay number 30
[5] = system: ECFC/ADSC co-culture cell nuclei number
hGSK3b = target: T5, hGSK3b (Homo sapiens, UniProt P49841); experiment: Cerep LANCE kinase assay hGSK3b (S1 assay 34); format: biochemical; conditions: for hGSK3b LANCE IC50/EC50: assay number 34
T5 construct: purchased Cerep (LANCE kinase assay platform, contract assay)
T5 sequence (P49841 whole entry): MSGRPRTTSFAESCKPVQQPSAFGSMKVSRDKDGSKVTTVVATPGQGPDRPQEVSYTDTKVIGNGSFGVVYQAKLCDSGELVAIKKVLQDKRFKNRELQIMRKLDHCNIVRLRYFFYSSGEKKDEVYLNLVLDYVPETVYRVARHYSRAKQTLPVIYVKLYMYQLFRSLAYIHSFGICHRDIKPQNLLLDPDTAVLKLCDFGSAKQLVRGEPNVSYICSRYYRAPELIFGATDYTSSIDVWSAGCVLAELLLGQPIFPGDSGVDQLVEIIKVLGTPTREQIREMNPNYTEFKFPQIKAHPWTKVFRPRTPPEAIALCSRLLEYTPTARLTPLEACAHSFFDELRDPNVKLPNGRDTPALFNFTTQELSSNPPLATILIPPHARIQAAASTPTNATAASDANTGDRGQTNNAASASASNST

COc1cc(NCc2ccc3nc(N)nc(N)c3c2C)cc(OC)c1OC [NCGC00161419-05]
Basal_Viability ATP DLD-1 IC50/EC50 (DLD-1): 0.1951 µM | Basal_Viability ATP SW480 IC50/EC50 (SW480): 0.0591 µM | VEGF_ADSC\ECFC Angio CD31 TubeArea IC50/EC50 [1]: 4.418 µM | hp70S6K1 LANCE IC50/EC50 (hp70S6K1 (RPS6KB1)): > 20 µM | Basal_Viability ATP RKO IC50/EC50 (RKO): 0.00272 µM | Basal_Viability ATP HT-29 IC50/EC50 (HT-29): 0.02122 µM | hJAK2 LANCE IC50/EC50 (hJAK2): > 20 µM | WntCondMedia_bCatenin C2C12 IC50/EC50 [2]: 0.0033 µM | Basal_Viability ATP HCT116 IC50/EC50 (HCT116): 0.02309 µM | Basal_Viability ATP Colo 320 IC50/EC50 (Colo320): 0.3859 µM | hFLT3 LANCE IC50/EC50 (hFLT3): > 20 µM | Hela CellCycMod PI 2N IC50/EC50 (HeLa cells): > 10 µM | Hela CellCycMod PI S Phase IC50/EC50 (HeLa cells): > 10 µM | Hela CellCycMod PI 4N IC50/EC50 (HeLa cells): > 10 µM | Hela CellCycMod PI MI IC50/EC50 (HeLa cells): > 10 µM | Hela CellCycMod PI Cell Number IC50/EC50 (HeLa cells): 3.8068 µM | GSK3b inh pretreated_Viability ATP HCT116 IC50/EC50 [3]: 0.00392 µM | hKDR LANCE IC50/EC50 (hKDR): > 20 µM | WntCondMedia_Alk Phos C2C12 IC50/EC50 [4]: > 20 µM | Basal_Viability ATP SNU-C1 IC50/EC50 (SNU-C1): 5.1323 µM | VEGF_ADSC\ECFC Angio Hoechst NucArea IC50/EC50 [5]: > 10 µM | hGSK3b LANCE IC50/EC50 (hGSK3b): > 20 µM

COCc1c(C(C)C)nc(C(C)C)c(/C=C/[C@@H](O)C[C@@H](O)CC(=O)[O-])c1-c1ccc(F)cc1.[Na+] [NCGC00164625-04]
Basal_Viability ATP DLD-1 IC50/EC50 (DLD-1; basal): 2.507 µM | Basal_Viability ATP SW480 IC50/EC50 (SW480; basal): 0.1433 µM | VEGF_ADSC\ECFC Angio CD31 TubeArea IC50/EC50 [1]: 0.0894 µM | hp70S6K1 LANCE IC50/EC50 (hp70S6K1 (RPS6KB1)): > 20 µM | Basal_Viability ATP RKO IC50/EC50 (RKO; basal): 1.013 µM | Basal_Viability ATP HT-29 IC50/EC50 (HT-29; basal): 1.212 µM | hJAK2 LANCE IC50/EC50 (hJAK2): > 20 µM | WntCondMedia_bCatenin C2C12 IC50/EC50 [2]: > 6.667 µM | Basal_Viability ATP HCT116 IC50/EC50 (HCT116): 0.2403 µM | Basal_Viability ATP Colo 320 IC50/EC50 (Colo320; basal): 1.924 µM | hFLT3 LANCE IC50/EC50 (hFLT3): > 20 µM | Hela CellCycMod PI 2N IC50/EC50 (HeLa cells): > 10 µM | Hela CellCycMod PI S Phase IC50/EC50 (HeLa cells): > 10 µM | Hela CellCycMod PI 4N IC50/EC50 (HeLa cells): > 10 µM | Hela CellCycMod PI MI IC50/EC50 (HeLa cells): > 10 µM | Hela CellCycMod PI Cell Number IC50/EC50 (HeLa cells): > 10 µM | GSK3b inh pretreated_Viability ATP HCT116 IC50/EC50 [3]: 0.05291 µM | hKDR LANCE IC50/EC50 (hKDR): > 20 µM | WntCondMedia_Alk Phos C2C12 IC50/EC50 [4]: > 20 µM | Basal_Viability ATP SNU-C1 IC50/EC50 (SNU-C1; basal): 1.8733 µM | VEGF_ADSC\ECFC Angio Hoechst NucArea IC50/EC50 [5]: 0.259 µM | hGSK3b LANCE IC50/EC50 (hGSK3b): > 20 µM

CCCSc1ccc2nc(NC(=O)OC)[nH]c2c1 [NCGC00016876-12]
IC50/EC50, Basal_Viability ATP DLD-1 (assay number 23) (DLD-1; basal): 0.1085 µM | IC50/EC50, Basal_Viability ATP SW480 (assay number 24) (SW480; basal): > 20 µM | IC50/EC50, VEGF_ADSC\ECFC Angio CD31 TubeArea (assay number 2) [1]: 0.3554 µM | IC50/EC50, hp70S6K1 LANCE (assay number 31) (hp70S6K1 (RPS6KB1)): > 20 µM | IC50/EC50, Basal_Viability ATP RKO (assay number 29) (RKO; basal): 0.1653 µM | IC50/EC50, Basal_Viability ATP HT-29 (assay number 28) (HT-29; basal): > 20 µM | IC50/EC50, hJAK2 LANCE (assay number 33) (hJAK2): > 20 µM | IC50/EC50, WntCondMedia_bCatenin C2C12 (assay number 5) [2]: 1.2764 µM | IC50/EC50, Basal_Viability ATP HCT116 (assay number 25) (HCT116): 0.1118 µM | IC50/EC50, Basal_Viability ATP Colo 320 (assay number 27) (Colo320; basal): 0.502 µM | IC50/EC50, hFLT3 LANCE (assay number 35) (hFLT3): > 20 µM | IC50/EC50, Hela CellCycMod PI 2N (assay number 14) (HeLa cells): 0.0656 µM | IC50/EC50, Hela CellCycMod PI 4N (assay number 16) (HeLa cells): 0.0612 µM | IC50/EC50, Hela CellCycMod PI Cell Number (assay number 18) (HeLa cells): 0.0377 µM | IC50/EC50, Hela CellCycMod PI MI (assay number 17) (HeLa cells): 0.0615 µM | IC50/EC50, Hela CellCycMod PI S Phase (assay number 15) (HeLa cells; S Phase): > 10 µM | IC50/EC50, GSK3b inh pretreated_Viability ATP HCT116 (assay number 26) [3]: 0.1579 µM | IC50/EC50, hKDR LANCE (assay number 32) (hKDR): > 20 µM | IC50/EC50, WntCondMedia_Alk Phos C2C12 (assay number 6) [4]: 12.2685 µM | IC50/EC50, Basal_Viability ATP SNU-C1 (assay number 30) (SNU-C1; basal): > 20 µM | IC50/EC50, VEGF_ADSC\ECFC Angio Hoechst NucArea (assay number 3) [5]: > 10 µM | IC50/EC50, hGSK3b LANCE (assay number 34) (hGSK3b): > 20 µM

O=c1c(-c2ccccc2)c1-c1ccccc1 [NCGC00166113-04]
IC50/EC50, Basal_Viability ATP DLD-1 (assay number 23) (DLD-1; basal): 4.208 µM | IC50/EC50, Basal_Viability ATP SW480 (assay number 24) (SW480; basal): > 20 µM | IC50/EC50, VEGF_ADSC\ECFC Angio CD31 TubeArea (assay number 2) [1]: 3.8353 µM | IC50/EC50, hp70S6K1 LANCE (assay number 31) (hp70S6K1 (RPS6KB1)): > 20 µM | IC50/EC50, Basal_Viability ATP RKO (assay number 29) (RKO; basal): > 20 µM | IC50/EC50, Basal_Viability ATP HT-29 (assay number 28) (HT-29; basal): > 20 µM | IC50/EC50, hJAK2 LANCE (assay number 33) (hJAK2): > 20 µM | IC50/EC50, WntCondMedia_bCatenin C2C12 (assay number 5) [2]: > 20 µM | IC50/EC50, Basal_Viability ATP HCT116 (assay number 25) (HCT116): > 20 µM | IC50/EC50, Basal_Viability ATP Colo 320 (assay number 27) (Colo320; basal): 3.1012 µM | IC50/EC50, hFLT3 LANCE (assay number 35) (hFLT3): > 20 µM | IC50/EC50, Hela CellCycMod PI 2N (assay number 14) (HeLa cells): > 10 µM | IC50/EC50, Hela CellCycMod PI 4N (assay number 16) (HeLa cells): > 10 µM | IC50/EC50, Hela CellCycMod PI Cell Number (assay number 18) (HeLa cells): 1.6859 µM | IC50/EC50, Hela CellCycMod PI MI (assay number 17) (HeLa cells): > 10 µM | IC50/EC50, GSK3b inh pretreated_Viability ATP HCT116 (assay number 26) [3]: 7.707 µM | IC50/EC50, hKDR LANCE (assay number 32) (hKDR): > 20 µM | IC50/EC50, WntCondMedia_Alk Phos C2C12 (assay number 6) [4]: 3.6201 µM | IC50/EC50, Basal_Viability ATP SNU-C1 (assay number 30) (SNU-C1; basal): > 20 µM | IC50/EC50, VEGF_ADSC\ECFC Angio Hoechst NucArea (assay number 3) [5]: 6.7548 µM | IC50/EC50, hGSK3b LANCE (assay number 34) (hGSK3b): > 20 µM
